Format in all cases: cell-based, human
Assay [1] relates to HT-29 cells. Briefly: Proliferation inhibition assay of cancer cells (Test Example 1), HT-29. As to conditions: Homo sapiens, HT-29, 96 h, HT-29 cells, cultured for 4 days, Cell Titer-Glo; read-out: IC50 (μM) HT; concentration for 50% inhibition of cell proliferation (Bulk IC50 value). Summed up: (§1)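 Human HCT-116 and HT-29 colon and FaDu hypopharyngeal cancer lines seeded at 300-600 cells/well in 384-well format, then given test substance at 0.1% final DMSO. Growth measured after 4 days of culture.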
For orientation: Cellular ATP, detected with luciferase, serves as a proxy for viable cell number.

The subject of assay [2] is FaDu cells. Briefly: Proliferation inhibition assay of cancer cells (Test Example 1), FaDu. The following applies: Homo sapiens, FaDu, 96 h, FaDu cells, cultured for 4 days, Cell Titer-Glo; read-out: IC50 (μM) FaDu; concentration for 50% inhibition of cell proliferation (Bulk IC50 value). Summed up: as §1
Assay [3] has as its system HCT-116 cells. Briefly: Inhibition assay of cancer cell sphere-forming ability (Test Example 2), HCT-116. The following applies: Homo sapiens, HCT-116, 96 h, HCT-116 cells, Ultra-Low Attachment plate, serum-free DMEM/F12 with B27, EGF, bFGF, insulin, 4 days, Cell Titer-Glo; read-out: IC50 (μM) HCT; concentration for 50% inhibition of cell proliferation (Sphere IC50 value). Summed up: (§2)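 Human tumour lines (colon HCT-116, HT-29; hypopharynx FaDu) seeded on ultra-low-attachment plates to form spheres. Compound added at 0.1% final DMSO, cultured 4 days.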

The test system of assay [4] is cancer cells. Briefly: Inhibition test of cancer cell sphere-forming ability, overall statement on Table 2. As to conditions: summary of Table 2. The protocol: HCT-116 cells (derived from human colon adenocarcinoma), HT-29 cells (derived from human colon cancer), FaDu cells (derived from human hypopharynx cancer) were obtained from American Type Culture Collection (ATCC). HCT-116 cells and HT-29 cells were cultured using McCoy's 5a medium containing 10% fetal bovine serum (FBS) and 1% penicillin/streptomycin, and FaDu cells were cultured using MEM medium containing 10% FBS, 1% non-essential amino acid, 1% sodium pyruvate, and 1% penicillin/streptomycin, respectively, at 37° C. in the presence of 5% CO2. HCT-116 cells, HT-29 cells, and FaDu cells were seeded onto 384 Well Black Clear Bottom Ultra-Low Attachment Microplate (Corning Cat. No. 3827) using DMEM/F12 medium containing 2% B27 supplement (GIBCO), 20 ng/mL epidermal growth factor (EGF) (peprotech), 10 ng/mL basic fibroblast growth factor (bFGF) (peprotech), 5 μg/mL insulin (Sigma), and 1% penicillin/streptomycin to be 350-800 cells/well. A test substance was added so that the final concentration of DMSO is 0.1%, and then cultured for 4 days. The number of living cells was then counted using Cell Titer-Glo (registered trademark) Luminescent Cell Viability Assay (Promega) to calculate the concentration for 50% inhibition of cell proliferation of respective test substances (Sphere IC50 value; μM).

In assay [5] the test system is cancer cells. Briefly: Proliferation inhibition test of cancer cells, overall statement on Table 1. As to conditions: summary of Table 1. As to the method:
HCT-116 cells (derived from human colon adenocarcinoma), HT-29 cells (derived from human colon cancer), and FaDu cells (derived from human hypopharynx cancer) were obtained from American Type Culture Collection (ATCC). HCT-116 cells and HT-29 cells were cultured using McCoy's 5a medium containing 10% fetal bovine serum (FBS) and 1% penicillin/streptomycin, and FaDu cells were cultured using MEM medium containing 10% FBS, 1% non-essential amino acid, 1% sodium pyruvate, and 1% penicillin/streptomycin, respectively, at 37° C. in the presence of 5% CO2. After cells were seeded at 300-600 cells/well onto black μClear-plate 384 well (Greiner bio-one Cat. No. 781091), a test substance was added such that the final concentration of DMSO is 0.1%, and cultured for 4 days. The number of living cells was then counted using Cell Titer-Glo (Registered trademark) Luminescent Cell Viability Assay (Promega) to calculate a concentration for 50% inhibition of cell proliferation of respective test substances (Bulk IC50 value; μM).

Assay [6] deals with HCT-116 cells. Briefly: Proliferation inhibition assay of cancer cells (Test Example 1), HCT-116. As to conditions: Homo sapiens, HCT-116, 96 h, HCT-116 cells, cultured for 4 days, Cell Titer-Glo; read-out: IC50 (μM) HCT; concentration for 50% inhibition of cell proliferation (Bulk IC50 value). Summed up: as §1
Assay [7] concerns FaDu cells. Briefly: Inhibition assay of cancer cell sphere-forming ability (Test Example 2), FaDu. The following applies: Homo sapiens, FaDu, 96 h, FaDu cells, Ultra-Low Attachment plate, serum-free DMEM/F12 with B27, EGF, bFGF, insulin, 4 days, Cell Titer-Glo; read-out: IC50 (μM) FaDu; concentration for 50% inhibition of cell proliferation (Sphere IC50 value). Summed up: as §2

Assay [8] relates to HT-29 cells. Briefly: Inhibition assay of cancer cell sphere-forming ability (Test Example 2), HT-29. As to conditions: Homo sapiens, HT-29, 96 h, HT-29 cells, Ultra-Low Attachment plate, serum-free DMEM/F12 with B27, EGF, bFGF, insulin, 4 days, Cell Titer-Glo; read-out: IC50 (μM) HT; concentration for 50% inhibition of cell proliferation (Sphere IC50 value). In a few lines: as §2

In the case of `O=C(NCC(F)F)c1cc2c(o1)C(=O)c1ccncc1C2=O` [Example 46, N-(2,2-difluoroethyl)-4,9-dioxo-4,9-dihydrofuro[2,3-g]isoquinoline-2-carboxamide], the IC50 is 0.05 µM with HT-29 cells [1]; less than 0.01 µM in the assay on FaDu cells [2]; 0.04 µM in the assay with HCT-116 cells [3]; less than 0.01 µM in the assay on HCT-116 cells [6]; less than 0.01 µM in the assay on FaDu cells [7]; 0.05 µM in the assay on HT-29 cells [8]. The “effect to inhibit cancer cell sphere-forming ability (in words)” value in the assay with cancer cells [4] is listed as “particularly strong effect”. The “effect on the inhibition of the proliferation of cancer cells (in words)” value (“effect on the inhibition” below) with cancer cells [5] was “particularly strong effect”.

For the compound `CC(=O)c1cc2c(s1)C(=O)c1cnccc1C2=O` [Example 33, 2-acetylthieno[3,2-g]isoquinoline-4,9-dione], the IC50 with HT-29 cells [1] is 0.09 µM; in the assay with FaDu cells [2], less than 0.01 µM; in the assay with HCT-116 cells [3] it was 0.02 µM; in the assay on HCT-116 cells [6], less than 0.01 µM; in the assay with FaDu cells [7], less than 0.01 µM; with HT-29 cells [8] it was 0.07 µM. Moreover, the “effect to inhibit cancer cell sphere-forming ability (in words)” value with cancer cells [4] is on record as “particularly strong effect”. Besides, the “effect on the inhibition” value with cancer cells [5] was “particularly strong effect”.

With `CC(=O)c1cc2c(s1)C(=O)c1ccncc1C2=O` [Example 12, 2-acetylthieno[2,3-g]isoquinoline-4,9-dione], the IC50 in the assay on HT-29 cells [1] is 0.18 µM; with FaDu cells [2] it was less than 0.01 µM; with HCT-116 cells [3], 0.04 µM; in the assay with HCT-116 cells [6], 0.05 µM; in the assay on FaDu cells [7], less than 0.01 µM; with HT-29 cells [8] it was 0.03 µM. The “effect to inhibit cancer cell sphere-forming ability (in words)” value in the assay on cancer cells [4] is recorded as “particularly strong effect”. In the assay with cancer cells [5], the “effect on the inhibition” value is “particularly strong effect”.

With `O=C1c2cnccc2C(=O)c2oc(C(F)F)cc21` [Example 63, 2-(difluoromethyl)furo[2,3-g]isoquinoline-4,9-dione], the IC50 in the assay on HT-29 cells [1] stood at 0.54 µM; in the assay with FaDu cells [2] it was 0.05 µM; in the assay with HCT-116 cells [3], 0.06 µM; with HCT-116 cells [6] it was 0.05 µM; with FaDu cells [7] it was 0.04 µM; with HT-29 cells [8], 0.24 µM. Moreover, the “effect to inhibit cancer cell sphere-forming ability (in words)” value with cancer cells [4] is recorded as “particularly strong effect”. In addition, in the assay with cancer cells [5], the “effect on the inhibition” value is listed as “particularly strong effect”.

On to `CC(=O)c1cc2c(s1)C(=O)c1cccnc1C2=O` [Example 1, 2-acetylthieno[2,3-g]quinoline-4,9-dione], for which the IC50 with HT-29 cells [1] stood at 0.57 µM; in the assay on FaDu cells [2], 0.01 µM; in the assay on HCT-116 cells [3], 0.02 µM; in the assay with HCT-116 cells [6] it was 0.01 µM; in the assay on FaDu cells [7], 0.02 µM; in the assay on HT-29 cells [8] it was 0.07 µM. Moreover, in the assay on cancer cells [5], the “effect on the inhibition” value is “particularly strong effect”.

As for `O=C1c2cnccc2C(=O)c2sc(C(=O)N3CCOCC3)cc21` [Example 20, 2-(morpholin-4-ylcarbonyl)thieno[2,3-g]isoquinoline-4,9-dione], the IC50 with HT-29 cells [1] was 0.09 µM; in the assay on FaDu cells [2] it was less than 0.01 µM; in the assay on HCT-116 cells [3], 0.06 µM; in the assay on HCT-116 cells [6], 0.05 µM; in the assay on FaDu cells [7], less than 0.01 µM; in the assay with HT-29 cells [8], 0.06 µM. Besides, the “effect to inhibit cancer cell sphere-forming ability (in words)” value with cancer cells [4] is given as “particularly strong effect”. In addition, the “effect on the inhibition” value in the assay with cancer cells [5] is “particularly strong effect”.

As to `O=C1c2ccncc2C(=O)c2c1oc(C(F)F)c2C(=O)N1CCOCC1` [Example 62, 2-(difluoromethyl)-3-(morpholine-4-carbonyl)furo[2,3-g]isoquinoline-4,9-dione], the IC50 in the assay on HT-29 cells [1] was 0.57 µM; in the assay with FaDu cells [2] it was 0.04 µM; in the assay on HCT-116 cells [3], 0.05 µM; in the assay on HCT-116 cells [6] it was 0.06 µM; in the assay with FaDu cells [7], less than 0.01 µM; in the assay on HT-29 cells [8] it was 0.04 µM. The “effect to inhibit cancer cell sphere-forming ability (in words)” value in the assay with cancer cells [4] was “particularly strong effect”. The “effect on the inhibition” value with cancer cells [5] is reported as “particularly strong effect”.

Consider `O=C1c2cnccc2C(=O)c2sc(C(O)C3CC3)cc21` (centres unmarked) [Example 16, 2-[cyclopropyl(hydroxy)methyl]thieno[2,3-g]isoquinoline-4,9-dione], for which the IC50 was 0.58 µM with HT-29 cells [1]; less than 0.01 µM with FaDu cells [2]; 0.22 µM in the assay on HCT-116 cells [3]; 0.06 µM with HCT-116 cells [6]; less than 0.01 µM in the assay on FaDu cells [7]; 0.15 µM in the assay on HT-29 cells [8]. Also, the “effect to inhibit cancer cell sphere-forming ability (in words)” value in the assay on cancer cells [4] is given as “particularly strong effect”. Besides, in the assay with cancer cells [5], the “effect on the inhibition” value is “particularly strong effect”.

For `CC(O)c1cc2c(o1)C(=O)c1cnccc1C2=O` (centres unmarked) [Example 49, 2-(1-hydroxyethyl)furo[3,2-g]isoquinoline-4,9-dione], the IC50 is 0.08 µM in the assay on HT-29 cells [1]; less than 0.01 µM in the assay on FaDu cells [2]; 0.04 µM in the assay on HCT-116 cells [3]; 0.04 µM in the assay on HCT-116 cells [6]; less than 0.01 µM in the assay on FaDu cells [7]; 0.06 µM with HT-29 cells [8]. For the same compound, the “effect to inhibit cancer cell sphere-forming ability (in words)” value in the assay on cancer cells [4] is listed as “particularly strong effect”. In addition, the “effect on the inhibition” value in the assay on cancer cells [5] is reported as “particularly strong effect”.

Take `CC(F)c1cc2c(s1)C(=O)c1ccncc1C2=O` (centres unmarked) [Example 30, 2-(1-fluoroethyl)thieno[2,3-g]isoquinoline-4,9-dione]: the IC50 was 0.05 µM with HT-29 cells [1]; less than 0.01 µM with FaDu cells [2]; less than 0.01 µM in the assay on HCT-116 cells [3]; less than 0.01 µM with HCT-116 cells [6]; less than 0.01 µM in the assay on FaDu cells [7]; less than 0.01 µM in the assay on HT-29 cells [8]. The “effect to inhibit cancer cell sphere-forming ability (in words)” value in the assay with cancer cells [4] is “particularly strong effect”. Besides, the “effect on the inhibition” value in the assay on cancer cells [5] was “particularly strong effect”.

For `CCc1noc(-c2cc3c(s2)C(=O)c2ccncc2C3=O)n1` [Example 31, 2-(3-ethyl-1,2,4-oxadiazol-5-yl)thieno[2,3-g]isoquinoline-4,9-dione], the IC50 was 0.31 µM in the assay with HT-29 cells [1]; less than 0.01 µM in the assay on FaDu cells [2]; 0.03 µM in the assay on HCT-116 cells [3]; 0.04 µM in the assay with HCT-116 cells [6]; less than 0.01 µM in the assay with FaDu cells [7]; less than 0.01 µM in the assay on HT-29 cells [8]. The “effect to inhibit cancer cell sphere-forming ability (in words)” value with cancer cells [4] is reported as “particularly strong effect”. The “effect on the inhibition” value with cancer cells [5] is given as “particularly strong effect”.

For `N#Cc1cc2c(s1)C(=O)c1ccncc1C2=O` [Example 29, 4,9-dioxo-4,9-dihydrothieno[2,3-g]isoquinoline-2-carbonitrile], the IC50 with HT-29 cells [1] was 0.32 µM; in the assay with FaDu cells [2], less than 0.01 µM; with HCT-116 cells [3], 0.05 µM; with HCT-116 cells [6], 0.04 µM; in the assay with FaDu cells [7] it was less than 0.01 µM; in the assay with HT-29 cells [8], 0.05 µM. In addition, in the assay on cancer cells [4], the “effect to inhibit cancer cell sphere-forming ability (in words)” value is listed as “particularly strong effect”. Further, the “effect on the inhibition” value in the assay on cancer cells [5] was “particularly strong effect”.

For orientation: IC50 means the midpoint of a concentration-inhibition curve.

The values are drawn from patent publication US10934309B2, “Tricyclic quinone derivative” (Boston Biomedical, Inc., priority 2014, dated 2021).
